Literature values, collected in patent publication US20230320987A1, “LIPID NANOPARTICLES AND LIPOSOMES” (National Health Research Institutes, priority 2022, published 2023).

Experiments:
[1] = after subcutaneous injection into a human body

Structure (SMILES): Cc1cc(NC2CCN(C(=O)CCNCC(=O)O)CC2)nc(NCc2nc(CCCNCCCNC3CCCCC3)co2)n1 [CX-1, (3-{4-[2-({4-[3-(3-cyclohexylaminopropylamino)propyl]oxazol-2-ylmethyl}amino)-6-methyl-pyrimidin-4-ylamino]piperidin-1-yl}-3-oxopropylamino)acetic acid]
- water solubility: high
- half-life [1]: less than one
